{
  "source": "patent US20170307595A1",
  "about": "“METHODS AND DEVICES TO STUDY METABOLISM” (The General Hospital Corporation, priority 2014, published 2017)",
  "key": {"[1]": {"details": "cited from earlier work; for Cmax: oral uptake of tegafur-uracil (UFT)"}, "rat primary hepatocytes [2]": {"test_system": "rat primary hepatocytes", "test": "Mass spectrometry of drug metabolism in single chamber device with hepatocytes alone", "details": "from tegafur+uracil", "description": "(§2) Tegafur, 5-FU, and Uracil concentrations in media were quantified using an LC/MS-MS 3200 QTRAP Hybrid Triple Quadrupole Linear Ion Trap mass spectrometer (AB SCIEX, Foster City, Calif.) coupled to a 1200 Series Binary LC System (Agilent Technologies, Santa Clara, Calif.). A standard solution of each analyte was directly infused into the mass spectrometer, which was operating under negative mode with the following settings: Curtain gas (CUR) at 30.0, collision gas (CAD) at 5, IonSpray Voltage (IS) at −4500.0, the temperature (TEM) of the turbo gas in the TurbolonSpray at 400° C. and both Ion Source Gases (GS1 and GS2) at 60.0. Using Analyst software (Version 1.5, AB Sciex), a ‘Compound Optimization’ routine was performed to identify multiple reaction monitoring (MRM) precursor/product ion transition pairs for each analyte that maximizes peak intensity. The tunable MS-specific parameters for the optimization were the declustering potential (DP), the entrance potential (EP), the collision energy (CE), as well as the collision cell exit potential (CXP).\n(§3) MS data acquisition for each sample was achieved by injecting 10 μL, of media through a liquid chromatographic (LC) separation phase followed by simultaneous detection of all three MRM transitions, each with a dwell time of 500 ms. The LC method utilized a Synergy Hydro-RP (reverse phase) column (150 mm×2 mm inner 4 μm 80 Å particles; Phenomenex, Torrance, Calif.), which was kept at ambient temperature. The aqueous mobile phase A was HPLC grade water with 0.1% formic acid and the organic phase B was HPLC grade methanol with 0.1% formic acid. The elution gradient was set as: 0 minutes-3% B, 3 minutes-3% B, 12 minutes-95% B, 15 minutes-95% B, 18 minutes-3% B, and 25 minutes-3% B."}, "Rat hepatocytes": {"test_system": "Rat hepatocytes", "test": "MTT toxicity experiment in 96-well plates, rat hepatocytes", "assay_type": "cell-based", "procedure": "(§1) Toxicity experiments were performed in 96-well plates. Briefly, 96-well plates were coated with 50 μg/mL fibronectin for 1 hour at 37° C. Freshly isolated rat hepatocytes and MCF-7 cells were seeded at 50,000 cells/well in 100 μL of media and incubated overnight at 37° C., 10% CO2. Hepatocytes were seeded in hepatocyte maintenance media while MCF-7 cells were seeded in DMEM. Media was replaced and cells were exposed to tegafur or 5-FU+Uracil in Williams E media at 37° C., 10% CO2. Uracil concentration was maintained at 100 μM, while 5-FU concentration varied. After 24 hours of exposure, media were removed and cells were incubated with 0.5 mg/mL MTT reagent for 2 hours. Media were removed from the wells and 100 μL DMSO was added to each well and mixed on a shaker for 10 minutes. The absorbance was measured at 570 nm and IC-50 values were obtained using Sigmaplot software with a sigmoidal 4-parameter fit."}, "MCF-7 cells": {"test_system": "MCF-7 cells", "test": "MTT toxicity experiment in 96-well plates, MCF-7", "assay_type": "cell-based, human", "procedure": "as §1"}, "rat primary hepatocytes [3]": {"test_system": "rat primary hepatocytes", "details": "24 h, 100 μM", "description": "as §2, §3"}, "[4]": {"test_system": "MCF-7 cells co-cultured with rat primary hepatocytes", "test": "LDH release, hepatocyte/MCF-7 co-culture in two-chamber microfluidic device", "assay_type": "cell-based, human", "details": "MCF-7 exposure to 5-FU produced by metabolic conversion of tegafur, 24 hours", "from_the_text": "Rat primary hepatocytes and human breast cancer cells (MCF-7) were co-cultured in the device of Example 1 to create a hepatocyte-cancer model for drug screening. In the two-chamber device, intercellular communication between hepatocytes and cancer cells is achieved without any flow within the devices. In the two-chamber device, both cell types were independently seeded into their respective chambers in the device using inlet ports on fibronectin-coated devices. Rat primary hepatocytes and MCF-7 cells were seeded into the first (bottom) and second (top) chambers, respectively. Control monocultures were seeded in a single chamber device. The co-culture model created provides a microenvironment with cells cultured in close proximity and relatively small volume. Co-culture of hepatocytes and MCF-7 cells was compared in 12-well plates against a two-chamber device. […]\nLDH in the supernatant was evaluated using CytoTox 96 Non-Radioactive Cytotoxicity Assay (Promega Cat No. G1780). […]\nAt the end of incubation, 50 μL stop solution was added and absorbance measured at 490 nm.\nLDH from culture supernatant is normalized as LDH from cultures exposed to 100 μM tegafur+100 μM uracil to LDH from cultures exposed to vehicle control. […] Percentage cell death was calculated as LDH in media/LDH in 10,000 MCF-7 cells."}, "[5]": {"details": "100 μM, inferred from IC-50 values"}},
  "data": [
    {"smiles": "O=c1[nH]cc(F)c(=O)[nH]1", "note": "[5-FU, 5-fluorouracil]", "values": [
      {"measurement": "half-life in circulation in the human body", "setting": "[1]", "value": 30, "unit": "min"},
      {"measurement": "fraction of 5-FU produced cleared by DPD activity", "setting": "[1]; human", "value": "~80", "unit": "%"},
      {"measurement": "Cmax", "setting": "[1]; human", "value": 0.847, "unit": "µM"},
      {"measurement": "temporal profile of 5-FU production", "setting": "rat primary hepatocytes [2]", "value": "increase in production up to 8 hours and a subsequent decrease"}
    ]},
    {"smiles": "O=c1[nH]c(=O)n(C2CCCO2)cc1F", "note": "(stereo not drawn) [Tegafur]", "values": [
      {"measurement": "toxicity to hepatocytes at 100 μM", "setting": "Rat hepatocytes; [5]", "value": "not toxic"},
      {"measurement": "IC50", "setting": "Rat hepatocytes; Hepatocyte, rat hepatocytes, 24 hours exposure, MTT, uracil 100 μM where present", "value": "> 1200", "unit": "µM"},
      {"measurement": "Cmax", "setting": "[1]; human", "value": 31.2, "unit": "µM"},
      {"measurement": "toxicity to MCF-7 cells at 100 μM", "setting": "MCF-7 cells; [5]", "value": "not toxic"},
      {"measurement": "IC50", "setting": "MCF-7 cells; Homo sapiens, MCF7, MCF-7, 24 hours exposure, MTT, uracil 100 μM where present", "value": 340, "unit": "µM"},
      {"measurement": "decrease of concentration within the media", "setting": "rat primary hepatocytes [3]", "value": "~75", "unit": "%"},
      {"measurement": "MCF-7 cell death (LDH in media/LDH in 10,000 MCF-7 cells)", "setting": "[4]", "value": "12.4±1.6", "unit": "%"}
    ]},
    {"smiles": "O=c1cc[nH]c(=O)[nH]1", "note": "[uracil, Uracil]", "values": [
      {"measurement": "decrease of concentration within the media", "setting": "rat primary hepatocytes [3]", "value": "~75", "unit": "%"}
    ]}
  ]
}
